# In the oligonucleotide strings, read from the 5' end, every base follows the letter of its sugar. An asterisk marks phosphorothioate; unmarked linkages are phosphodiester. Other units and linkages are bracketed, terminal groups are in braces. A string of capitals states the bases alone. m = 2'-O-methyl
# What was measured:
# miR-122 = assay: psiCHECK-miR122 dual luciferase reporter assay in Huh7 cells; type: cell-based, human; conditions: for miR-122 inhibitory activity (structure-activity, in words) / miR-122 activation (structure-activity, in words): Huh7, 10 μM; for miR-122 inhibitory activity (structure-activity, in words): relative to parent inhibitor 1 or 2; for miR-122 activation (structure-activity, in words): relative to parent activator 3
# Excerpt: A miRNA small molecule modifier screen for miR-122 was developed based on the psiCHECK-2 (Promega) reporter plasmid (FIG. 9). This construct expresses both Renilla luciferase as well as firefly luciferase, allowing for the normalization of the signal to account for differential cellular viability and variability in transfection efficiency. The miR-122 target sequence was inserted downstream of the Renilla luciferase gene, between the PmeI and SgfI restriction sites. In another aspect of the invention, plasmids expressing luciferase or another reporter gene such as for example, fluorescent reporters (GFP and variants thereof, DsRed, etc.) or beta-galactosidase can be used to screen for small molecule modifiers of miR-122. The mi-122 target sequence may be upstream or downstream of the reporter gene. Multiple miR-122 target sites can also be inserted into or be present in the plasmid.
# The presence of mature miR-122 will lead to a decrease in the Renilla luciferase signal (FIG. 1a). The ability to detect endogenous miR-122 was validated by transfecting the generated psiCHECK-miR122 construct into Huh7 and HeLa cells. After 48 hour incubation, the cells were assayed using a Dual Luciferase Assay Kit (Promega). In another embodiment, the cells can be incubated for about 24-96 hours. The Dual Luciferase Assay Kit provides a means to measure the amount of the luciferases by generating a luminescent signal. Using this assay the luminescence from the firefly luciferase reaction may be quenched while the luminescent reaction of Renilla luciferase can be activated. Other assays and procedures that can determine the amount of the one or more reporter genes or miR-122 expression, activity or function can be used. An example of another assay is Dual-Glo Assay (Promega).
# The psiCHECK-miR122 vector was then employed in a small molecule screen in Huh7 cells to discover modifiers of miR-122 function. Other cells that express miR-122 such as HepG2 and Hep3B can be used in addition to or instead of Huh7 cells. An increase in the relative Renilla luciferase signal indicates a miR-122 inhibitor, while a reduction in the luciferase signal indicates a miR-122 activator. A genus of compounds that may have activity as modifiers of miR122 function are the Diversity Set II (1364 compounds) from the NCI Developmental Therapeutics Program was screened using Huh7 cells containing the psiCHECK-miR122 reporter. Cells were exposed to the small molecules and the relative luciferase signal was measured after 48 hours using a Dual Luciferase Assay Kit (Promega). In another embodiment the cells can be exposed to the small molecules for about 24-96 hours. As explained above, other assays and procedures that can determine the amount of the one or more reporter genes or miR-122 expression, activity or function can be used.
# The analogs were screened for activity using the previously described miR-122 assay. All cells were treated with 10 μM of a compound and experiments were performed in triplicate to ensure statistical validity. The data was normalized to a 1% DMSO control and is reported in relative luciferase units (RLU). The standard deviation was calculated from three independent assays. Some analogs of miR-122 inhibitor compound 1 are:
# Huh7 and HeLa cells were transfected at approximately 60% confluency with either the psiCHECK-Control plasmid (the original psiCHECK-2 plasmid containing no known miRNA binding site) or the psiCHECK-miR122 plasmid (0.5 μg) using X-tremGENE transfection reagent (3:2 reagent/DNA ratio; Roche) in Opti-Mem media (Invitrogen). All transfections were performed in triplicate for statistical analysis. The cells were incubated at 37° C. for 4 hours followed by the replacement of transfection media with standard DMEM growth media. After 48 hours of incubation the media was removed, cells were lysed and assayed with a Dual Luciferase Assay Kit (Promega) using a Wallac VICTOR^3V luminometer with a measurement time of 1 s and a delay time of 2 s. […]
# [1] = tested on: psiCHECK-control vector (no miRNA target sequence); assay: psiCHECK-control vector luciferase counter-assay in Huh7 cells; type: cell-based, human; conditions: Huh7, 10 μM
# Excerpt: (FIG. 3). […] The relative luciferase units were normalized to the corresponding DMSO signals. […] This confirms that compound 2 and the antagomir have similar effects on the reduction of miR-122 function in Huh7 cells.
# Compounds which elicited greater than a 5-fold increase of the relative luciferase units signal compared to the DMSO control were then re-assayed in triplicate to confirm the validity of the hit compound. Upon secondary validation of miR-122 inhibition, identical assays were repeated with the psiCHECK-Control vector to ascertain that the effect is specific to the miR-122 pathway, and not simply affecting the Renilla gene. In order to assess the relative degree of miR-122 inhibition, Huh7 cells were also co-transfected with either the psiCHECK-Control plasmid or the psiCHECK-miR122 plasmid (0.5 μg) and a miR-122 2′-OMe PS antagomir (50 pmol; 5′ […] (SEQ ID NO:4) 3′; IDT DNA)(2) using the X-tremGENE transfection reagent (Roche Applied Science, 4:2 reagent/DNA ratio). The transfection media was replaced with standard DMEM growth media after 4 hours and the cells were incubated for 48 hours prior to analysis with a Dual Luciferase Assay Kit (FIG. 3).
# [2] = tested on: hepatitis C virus (HCV) genotype 1a H77c RNA; assay: HCV replication in Huh7 cells (HCV RNA by quantitative RT PCR); type: cell-based; conditions: Huh7, 10 μM (antagomir transfected), 48 hours
# Method: Aberrantly regulated miR-122 is involved in the development of heptocellular carcinoma (HCC). miR-122 is a cellular component required by hepatitis C virus (HCV) for viral replication. […] Due to the efficient down-regulation of miRNA-122 by the small molecule inhibitors 1 and 2, both compounds were tested for their ability to inhibit HCV replication in Huh7 cells. The pHtat2Neo/QR/KR/FV/SI plasmid (provided by Dr. Stanley Lemon of University of Texas Medical Branch (UTMB)) was used to generate genotype 1a H77c RNA, which was subsequently transfected into Huh7 cells.^16 The cells were then either transfected with a miR-122 antagomir (positive control), or treated with compounds 1 and 2 (10 μM), or DMSO (negative control). After 48 hours, total RNA was isolated and HCV RNA levels were measured by quantitative RT PCR (FIG. 7). In agreement with previous reports, the antagomir reduced HCV RNA levels to 20%.^6 Moreover, the small molecule miR-122 inhibitors 1 and 2 elicited a reduction in viral load to 48% and 47%, respectively.
# The pHtat2Neo/QR/KR/FV/SI plasmid (provided by Dr. Stanley Lemon)^16 was linearized using XbaI (10 units, 50 μL reaction; New England Biolabs), followed by transcription with T7 RNA Polymerase (6 h, 37° C.), and purification on Microcon 10 columns. Huh7 cells were then grown to 60% confluency in a 6 well plate and transfected with 1 μg RNA using X-tremGENE transfection reagent (Roche Applied Science, 3:2 reagent/RNA ratio) in Opti-Mem media (Invitrogen). After a 4 hour incubation at 37° C., the transfection media was removed and replaced with standard growth media (2 mL) supplemented with 10 μM of 1 or 2 (1% DMSO final concentration). All experiments were conducted in triplicate for statistical validation. […] Quantitative RT-PCR was then performed as previously described using the general HCV RT-PCR Primers (5′: […] 3′ (SEQ ID NO:7) and 5′ […] 3′) (SEQ ID NO:8) and GADPH primers (5′ […] 3′ (SEQ ID NO:9) and 5′ […] 3′) (SEQ ID NO:10) as a standard control.
compound,measurement,setting,value
O=C(NCc1ccc2ccccc2c1)c1ccc(Cl)cc1Cl [1f],"miR-122 inhibitory activity (structure-activity, in words)",miR-122,virtually complete loss of miR-122 inhibitory activity
"Nc1ccc(NS(=O)(=O)c2ccc3c(c2)CCCN3)cc1 [2d, N-(4-Aminophenyl)-1,2,3,4-tetrahydroquinoline-6-sulfonamide]","miR-122 inhibitory activity (structure-activity, in words)",miR-122,lost
"O=S(=O)(Nc1ccccc1)c1ccc2c(c1)CCCN2 [2c, N-Phenyl-1,2,3,4-tetrahydroquinoline-6-sulfonamide]","miR-122 inhibitory activity (structure-activity, in words)",miR-122,Activity was maintained
same,relative luciferase units (RLU) normalized to a DMSO control,"miR-122; Huh7, psiCHECK-miR122, 10 μM, mean ± SD of three independent assays",9.9±3.1 RLU
"NCCN1C(=O)c2cccc3cc(N)cc(c23)C1=O [3c, 5-Amino-2-(2-aminoethyl)-1H-benzo[de]isoquinoline-1,3(2H)-dione]","miR-122 activation (structure-activity, in words)",miR-122,increasing loss of activity
"Nc1ccc(NC(=O)c2ccc(Cl)cc2Cl)cc1 [1h, N-(4-Aminophenyl)-2,4-dichlorobenzamide]","miR-122 inhibitory activity (structure-activity, in words)",miR-122,complete loss of miR-122 inhibitory activity
O=C(NCc1ccc2ccccc2c1)c1ccc(Cl)cc1Cl [1e],"miR-122 inhibitory activity (structure-activity, in words)",miR-122,virtually complete loss of miR-122 inhibitory activity
"CN(C)CCN1C(=O)c2cccc3cccc(c23)C1=O [3a, 2-(2-(Dimethylamino)ethyl)-1H-benzo[de]isoquinoline-1,3(2H)-dione]","miR-122 activation (structure-activity, in words)",miR-122,retention of activity
O=C(NCc1ccc2ccccc2c1)c1ccc(Cl)cc1Cl [1m],"miR-122 inhibitory activity (structure-activity, in words)",miR-122,substantial loss of activity
"Nc1cc2c3c(cccc3c1)C(=O)N(Cc1ccc3ccccc3c1)C2=O [3g, 5-amino-2-(naphthalen-2-ylmethyl)-1H-benzo[de] isoquinoline-1,3(2H)-dione]","miR-122 activation (structure-activity, in words)",miR-122,complete loss of miR-122 activation
"antagomir: miR-122 2′-OMe PS antagomir, 5′ ACAAACACCAUUGUCACACUCCA 3′ (SEQ ID NO:4), positive control (mA*mC*mA*mA*mA*mC*mA*mC*mC*mA*mU*mU*mG*mU*mC*mA*mC*mA*mC*mU*mC*mC*mA) [reference compound]",normalized Renilla luciferase signal with psiCHECK-control vector,[1],no statistically significant alteration
same,HCV RNA levels / viral load reduced to,[2],20%
same,Renilla luciferase expression with psiCHECK-miR122 (in words),"miR-122; Huh7, 10 μM (antagomir transfected), normalized to DMSO",significant increase
"O=C(Nc1ccccc1)c1ccc(Cl)cc1Cl [1g, 2,4-Dichloro-N-phenylbenzamide]","miR-122 inhibitory activity (structure-activity, in words)",miR-122,complete loss of miR-122 inhibitory activity
"O=C(Nc1ccc(I)cc1)c1ccc(Cl)cc1Cl [1i, 2,4-Dichloro-N-(4-iodophenyl)benzamide]","miR-122 inhibitory activity (structure-activity, in words)",miR-122,complete loss of miR-122 inhibitory activity
"O=S(=O)(c1ccc2c(c1)CCCN2)N1CCCc2ccccc21 [2b, 6-(3,4-Dihydroquinolin-1(2H)-ylsulfonyl)-1,2,3,4-tetrahydroquinoline]","miR-122 inhibitory activity (structure-activity, in words)",miR-122,loss of activity

# Reference: patent US20130005759A1, “SMALL MOLECULE MODIFIERS OF MICRORNA MIR-122” (North Carolina State University, priority 2010, published 2013)
